Reference: US20260109707A1, “HETEROBIFUNCTIONAL COMPOUNDS AND METHODS OF TREATING DISEASE” (Halda Therapeutics OpCo. Inc., priority 2022, published 2026)
Where two headings read alike, the source gives them in different places.

Key:
[1] = test system: T-Rex 293 cell line SC3 cells having increased expression of androgen receptor protein due to exposure to doxycycline; experiment: Cellular growth inhibition assay, T-Rex 293 SC3 cells with doxycycline (CellTiter-Glo, 72 hours); type: cell-based; settings: 72 h, T-Rex 293 SC3 cells with increased androgen receptor expression due to doxycycline (10 ng/mL)
Method in brief: (§1)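 Doxycycline (10 ng/mL) was either included or omitted to toggle wild-type androgen receptor expression in SC3 cells, a T-Rex 293 clone, grown in stripped-serum, phenol red-free medium. After 72 hours with compound, viable cells were quantified by CellTiter-Glo 2.0.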

[2] = test system: T-Rex 293 cell line SC3 cells lacking increased expression of androgen receptor protein; experiment: Cellular growth inhibition assay, T-Rex 293 SC3 cells without doxycycline (CellTiter-Glo, 72 hours); type: cell-based; settings: T-Rex 293 cell line SC3 cells not exposed to doxycycline (lacking increased androgen receptor expression)
Method in brief: as §1

VCaP cells = experiment: Cellular growth inhibition assay for VCaP cells (CellTiter-Glo, 72 hours); type: cell-based, human
Method in brief: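 Luminescent viability signal after 72 h of compound exposure gave GI50 values by four-parameter nonlinear regression. Compounds were added in 0.5% DMSO to cells plated 24 h earlier at 5000/well in DMEM containing 10% FBS.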

[3] = Cellular growth inhibition assay, T-Rex 293 SC cells with doxycycline (CellTiter-Glo, 72 hours); type: cell-based; settings: T-Rex 293 SC cells with doxycycline (increased progesterone receptor isoform B)
Description: (§2) The following types of cells were prepared for this experiment: (i) a T-Rex 293 cell line having increased expression of progesterone receptor isoform B protein due to exposure to doxycycline and (ii) a T-Rex 293 cell line lacking increased expression of progesterone receptor isoform B protein. Ability of the test compounds to inhibit proliferation of the foregoing cell types was evaluated according to the procedures set forth below.
(§3) The doxycycline-inducible progesterone receptor isoform B protein expressing cell line was established using the following protocol: T-Rex 293 cells were purchased from Invitrogen (Cat #R71007) and transfected using Lipofectamine 2000 with the wild-type progesterone receptor B protein sequence cloned into the pcDNA4/TO vector. Transfected cells were selected using 400 μg/mL Zeocin (Invitrogen Cat #R25001). Following selection, single clones were raised and maintained in Dulbecco's Modified Eagle Medium (DMEM) supplemented with 10% w/w Tetracycline-free fetal bovine serum (FBS) and 250 μg/mL Zeocin. Clones were analyzed for expression of progesterone receptor isoform B protein in the presence and absence of 10 ng/mL doxycycline (Sigma Cat #D9891), and a single doxycycline-inducible clone (hereinafter “SC”) was selected for use in downstream assays.
(§4) The SC cells were seeded on poly-D-lysine coated, black clear-bottom 384-well plates at 2500/well, in 25 μL Phenol Red Free Dulbecco's Modified Eagle Medium (DMEM) supplemented with 10% w/w charcoal-dextran treated fetal bovine serum (FBS) and 1% w/w pen-strep, with or without 10 ng/mL doxycycline. Pen-Strep is a commercially available mixture of penicillin G and streptomycin, which is used in mammalian cell culture media to prevent bacterial contamination. Phenol Red Free Dulbecco's Modified Eagle Medium (DMEM) supplemented with 10% w/w charcoal-dextran treated fetal bovine serum (FBS) and 1% w/w pen-strep, with or without 10 ng/mL doxycycline is herein referred to as Treatment Medium. Following seeding of cells in the plates, the plates were spun at 300×g for 30 seconds, then equilibrated to room temperature for 30 minutes, and then deposited in a humidified tissue culture incubator maintained at 37° C. with 5% CO2.
(§5) At 24 hours after seeding of the cells, dilutions of test compound were prepared in DMSO and dissolved in Treatment Medium, to achieve a final DMSO concentration of 0.5% w/w, thereby providing the Test Compound Solution. A 25 μL aliquot of the Test Compound Solution was added to cells in the well plates. An equal volume of a solution containing DMSO and Treatment Medium was used as a negative control. Following treatment of cells with Test Compound Solution or said equal volume of a solution containing DMSO and Treatment Medium, the plates were spun at 300×g for 30 seconds, and then left in an incubator for 72 hours.
(§6) At the end of the treatment duration, cell viability was quantified with CellTiter-Glo 2.0 reagent (Promega Cat #G9243). For this purpose, plates were equilibrated to room temperature for 30 minutes, and then 25 μL of CellTiter-Glo 2.0 reagent was added to cells in the plate wells. Plates were then agitated on a shaker for two minutes at 500 rpm and subsequently incubated at room temperature for 10 minutes. Following incubation, the plates were spun at 3000×g for 30 seconds, then sealed with an optical adhesive cover, and luminescence readings were measured with an EnVision Plate Reader (Perkin Elmer).
(§7) Data was normalized using zero luminescence for baseline. A four-parameter non-linear regression curve fit was applied to dose-response data in GraphPad Prism data analysis software to determine the half-maximal growth inhibitory concentration (GI50) for each test compound.

T47D cells = experiment: Cellular growth inhibition assay for T47D cells (CellTiter-Glo, 72 hours); type: cell-based, human; settings: 72 hours treatment
Method in brief: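 Growth inhibition as GI50, fitted with four parameters to CellTiter-Glo luminescence after 72 h of compound exposure (0.5% DMSO). Cells were T47D, grown in insulin-supplemented (0.2 units/mL) DMEM with 10% FBS and treated one day post-seeding.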

[4] = test system: T-Rex 293 cell line SC cells lacking increased expression of progesterone receptor isoform B protein; experiment: Cellular growth inhibition assay, T-Rex 293 SC cells without doxycycline (CellTiter-Glo, 72 hours); type: cell-based; settings: T-Rex 293 SC cells not exposed to doxycycline
Description: as §2, §3, §4, §5, §6, §7

SMILES | GI50 (VCaP cells; Homo sapiens, VCaP, 72 h) | GI50 (T47D cells; Homo sapiens, T47D, 72 h) | GI50 (VCaP cells) | GI50 (T47D cells) | GI50 [1] | GI50 ([2]; 72 h) | GI50 [3] | GI50 [4] | GI50 [2]
CCNC(=O)C[C@@H]1N=C(c2ccc(OC3CCN(c4ccc(C(=O)N[C@H]5CC[C@H](Oc6ccc(C#N)c(Cl)c6)CC5)nn4)CC3)cc2)c2c(sc(C)c2C)-n2c(C)nnc21 [I-26] | < 500 nM | < 500 nM | – | – | < 500 nM | 500 to 1500 nM | < 500 nM | < 500 nM | –
Cc1sc2c(c1C)C(c1ccc(CCC3CC4(CCCN(c5ccc(C(=O)N[C@H]6CC[C@H](Oc7ccc(C#N)c(Cl)c7)CC6)nn5)C4)C3)cc1)=N[C@@H](Cc1ncco1)c1nnc(C)n1-2 (some centres unmarked) [I-208] | < 500 nM | < 500 nM | – | – | < 500 nM | < 500 nM | < 500 nM | < 500 nM | –
Cc1sc2c(c1C)C(c1ccc(C3C[C@H]3CC3CCCN(c4ccc(C(=O)N[C@H]5CC[C@H](Oc6ccc(C#N)c(Cl)c6)CC5)nn4)C3)cc1)=N[C@@H](Cc1ncco1)c1nnc(C)n1-2 (some centres unmarked) [I-204] | < 500 nM | < 500 nM | – | – | < 500 nM | < 500 nM | < 500 nM | < 500 nM | –
CCNC(=O)C[C@@H]1N=C(c2ccc(C3CCC(OC4CCN(c5ccc(C(=O)N[C@H]6CC[C@H](Oc7ccc(C#N)c(Cl)c7)CC6)nn5)CC4)C3)cc2)c2c(sc(C)c2C)-n2c(C)nnc21 (some centres unmarked) [I-67] | < 500 nM | < 500 nM | – | – | < 500 nM | < 500 nM | < 500 nM | < 500 nM | –
Cc1sc2c(c1C)C(c1ccc(CCCN3[C@@H](C)CN(c4ccc(C(=O)N[C@H]5CC[C@H](Oc6ccc(C#N)c(Cl)c6)CC5)nn4)C[C@@H]3C)cc1)=N[C@@H](Cc1ncco1)c1nnc(C)n1-2 [I-130] | < 500 nM | < 500 nM | – | – | < 500 nM | < 500 nM | < 500 nM | < 500 nM | –
Cc1sc2c(c1C)C(c1ccc(CCCN3[C@H](C)CN(c4ccc(C(=O)N[C@H]5CC[C@H](Oc6ccc(C#N)c(Cl)c6)CC5)nn4)C[C@@H]3C)cc1)=N[C@@H](Cc1ncco1)c1nnc(C)n1-2 [I-129] | < 500 nM | < 500 nM | – | – | < 500 nM | < 500 nM | < 500 nM | < 500 nM | –
CCNC(=O)C[C@@H]1N=C(c2ccc(OCCC3CCN(c4ccc(C(=O)N[C@H]5CC[C@H](Oc6ccc(C#N)c(Cl)c6)CC5)nn4)CC3)cc2)c2c(sc(C)c2C)-n2c(C)nnc21 [I-13] | < 500 nM | < 500 nM | – | – | < 500 nM | < 500 nM | < 500 nM | < 500 nM | –
Cc1sc2c(c1C)C(c1ccc(CCN3CCCN(c4ccc(C(=O)N[C@H]5CC[C@H](Oc6ccc(C#N)c(Cl)c6)CC5)nn4)CC3)cc1)=N[C@@H](Cc1ncco1)c1nnc(C)n1-2 [I-128] | < 500 nM | < 500 nM | – | – | < 500 nM | < 500 nM | < 500 nM | < 500 nM | –
Cc1sc2c(c1C)C(c1ccc(C3CC3CC3CCCN(c4ccc(C(=O)N[C@H]5CC[C@H](Oc6ccc(C#N)c(Cl)c6)CC5)nn4)C3)cc1)=N[C@@H](Cc1ncco1)c1nnc(C)n1-2 (some centres unmarked) [I-205] | < 500 nM | < 500 nM | – | – | < 500 nM | < 500 nM | < 500 nM | < 500 nM | –
CCNC(=O)C[C@@H]1N=C(c2ccc(N3CCN(CC4CCN(c5ccc(C(=O)N[C@H]6CC[C@H](Oc7ccc(C#N)c(Cl)c7)CC6)nn5)CC4)CC3)cc2)c2c(sc(C)c2C)-n2c(C)nnc21 [I-28] | < 500 nM | < 500 nM | – | – | < 500 nM | 500 to 1500 nM | < 500 nM | < 500 nM | –
CCNC(=O)C[C@@H]1N=C(c2ccc(OCCN3CCN(c4ccc(C(=O)N[C@H]5CC[C@H](Oc6ccc(C#N)c(Cl)c6)CC5)nn4)CC3)cc2)c2c(sc(C)c2C)-n2c(C)nnc21 [I-25] | < 500 nM | < 500 nM | – | – | < 500 nM | 500 to 1500 nM | < 500 nM | 500 to 1500 nM | –
Cc1sc2c(c1C)C(c1ccc(OC[C@H]3C[C@]4(CCCN(c5ccc(C(=O)N[C@H]6CC[C@H](Oc7ccc(C#N)c(Cl)c7)CC6)nn5)C4)C3)cc1)=N[C@@H](Cc1ncco1)c1nnc(C)n1-2 [I-104] | – | – | < 500 nM | < 500 nM | < 500 nM | – | – | – | < 500 nM
Cc1sc2c(c1C)C(c1ccc(C3C[C@@H]3CC3CCCN(c4ccc(C(=O)N[C@H]5CC[C@H](Oc6ccc(C#N)c(Cl)c6)CC5)nn4)C3)cc1)=N[C@@H](Cc1ncco1)c1nnc(C)n1-2 (some centres unmarked) [I-203] | 1500 to 3000 nM | > 3000 nM | – | – | < 500 nM | 500 to 1500 nM | 500 to 1500 nM | 500 to 1500 nM | –

Second part, led by results:

GI50 (VCaP cells; Homo sapiens, VCaP, 72 h) | GI50 (T47D cells; Homo sapiens, T47D, 72 h) | GI50 (VCaP cells) | GI50 (T47D cells) | SMILES | GI50 [1] | GI50 ([2]; 72 h) | GI50 [3] | GI50 [4] | GI50 [2]
< 500 nM | > 3000 nM | – | – | Cc1sc2c(c1C)C(c1ccc(OC3CC4(C3)CC3(CCN(c5ccc(C(=O)N[C@H]6CC[C@H](Oc7ccc(C#N)c(Cl)c7)CC6)nn5)CC3)C4)cc1)=N[C@@H](C)c1nnc(C)n1-2 [I-435] | < 500 nM | > 3000 nM | – | – | –
< 500 nM | 500 to 1500 nM | – | – | Cc1sc2c(c1C)C(c1ccc(CN(C)C(=O)[C@@H]3CC[C@H](c4ccc(C(=O)N[C@H]5CC[C@H](Oc6ccc(C#N)c(Cl)c6)CC5)nn4)C3)cc1)=N[C@@H](Cc1ncco1)c1nnc(C)n1-2 [I-315] | < 500 nM | > 3000 nM | – | – | –
< 500 nM | > 3000 nM | – | – | Cc1sc2c(c1C)C(c1ccc(OC[C@@H]3CC[C@@]4(CCCN(c5ccc(C(=O)N[C@H]6CC[C@H](Oc7ccc(C#N)c(Cl)c7)CC6)nn5)C4)C3)nc1)=N[C@@H](Cc1ncco1)c1nnc(C)n1-2 [I-330] | < 500 nM | > 3000 nM | – | – | –
< 500 nM | 500 to 1500 nM | – | – | Cc1sc2c(c1C)C(c1ccc([C@@H]3CCCCN3C(=O)[C@H]3CCCN(c4ccc(C(=O)N[C@H]5CC[C@H](Oc6ccc(C#N)c(Cl)c6)CC5)nn4)C3)cc1)=N[C@@H](Cc1ncco1)c1nnc(C)n1-2 [I-297] | < 500 nM | > 3000 nM | – | – | –
< 500 nM | < 500 nM | – | – | Cc1sc2c(c1C)C(c1ccc([C@H]3CCN(C(=O)[C@@H]4CCCN(c5ccc(C(=O)N[C@H]6CC[C@H](Oc7ccc(C#N)c(Cl)c7)CC6)nn5)C4)C3)cc1)=N[C@@H](Cc1ncco1)c1nnc(C)n1-2 [I-342] | < 500 nM | < 500 nM | – | – | –
500 to 1500 nM | < 500 nM | – | – | Cc1sc2c(c1C)C(c1ccc(-c3ccc(C4CC5(C4)CN(c4ccc(C(=O)N[C@H]6CC[C@H](Oc7ccc(C#N)c(Cl)c7)CC6)nn4)C5)cc3)cc1)=N[C@@H](Cc1ncco1)c1nnc(C)n1-2 [I-412] | < 500 nM | < 500 nM | – | – | –
500 to 1500 nM | 500 to 1500 nM | – | – | Cc1sc2c(c1C)C(c1ccc(C(=O)N3CCC(Cc4ccc(C(=O)N[C@H]5CC[C@H](Oc6ccc(C#N)c(Cl)c6)CC5)nn4)CC3)cc1)=N[C@H](Cc1ncco1)c1nnc(C)n1-2 [I-241] | < 500 nM | 500 to 1500 nM | – | – | –
